# Values of other authors, collected in article PMC8513935.
# Columns and labels:
# [1] = experimental, compiled by the authors from the literature (the ESI cites the sources)
# [2] = derived by the authors as gas->solvent minus gas->water (a hypothetical dry solvent; the ESI), not a two-phase measurement
# [3] = log P octanol/water from commercial databases, averaged (the ESI); conditions: Octanol (wet), 25 C
structure (smiles),measurement,setting,value
C=C,"log K of transfer, gas to solvent","[1]; 1,2-Dichloroethane, 25 C",0.36 log10 K
same,"log K of transfer, gas to solvent","[1]; 2-Methylpropan-1-ol, 25 C",0.34 log10 K
same,"log K of transfer, gas to solvent","[1]; 2-Methylpropan-2-ol, 25 C",0.36 log10 K
same,"log K of transfer, gas to solvent","[1]; Butan-1-ol, 25 C",0.34 log10 K
same,"log K of transfer, gas to solvent","[1]; Butan-2-ol, 25 C",0.32 log10 K
same,"log K of transfer, gas to solvent","[1]; CCl4, 25 C",0.57 log10 K
same,"log K of transfer, gas to solvent","[1]; Chlorobenzene, 25 C",0.45 log10 K
same,"log K of transfer, gas to solvent","[1]; Cyclohexanone, 25 C",0.401 log10 K
same,"log K of transfer, gas to solvent","[1]; Ethanol, 25 C",0.41 log10 K
same,"log K of transfer, gas to solvent","[1]; Heptan-1-ol, 25 C",0.312 log10 K
same,"log K of transfer, gas to solvent","[1]; Hexadecane, 25 C",0.289 log10 K
same,"log K of transfer, gas to solvent","[1]; Hexan-1-ol, 25 C",0.318 log10 K
same,"log K of transfer, gas to solvent","[1]; Hexane, 25 C",0.471 log10 K
same,"log K of transfer, gas to solvent","[1]; Methanol, 25 C",0.41 log10 K
same,"log K of transfer, gas to solvent","[1]; Octan-1-ol, 25 C",0.28 log10 K
same,"log K of transfer, gas to solvent","[1]; Pentan-1-ol, 25 C",0.35 log10 K
same,"log K of transfer, gas to solvent","[1]; Propan-1-ol, 25 C",0.38 log10 K
same,"log K of transfer, gas to solvent","[1]; Propan-2-ol, 25 C",0.33 log10 K
same,"log K of transfer, gas to solvent","[1]; Propanone, 25 C",0.56 log10 K
same,"log K of transfer, gas to solvent","[1]; Tetrahydrofuran, 25 C",0.6 log10 K
same,"log K of transfer, gas to solvent","[1]; Water, 25 C",-0.94 log10 K
same,"log K of transfer, water to solvent","[2]; 1,2-Dichloroethane, 25 C",1.3 log10 K
same,"log K of transfer, water to solvent","[2]; 2-Methylpropan-1-ol, 25 C",1.28 log10 K
same,"log K of transfer, water to solvent","[2]; 2-Methylpropan-2-ol, 25 C",1.3 log10 K
same,"log K of transfer, water to solvent","[2]; Acetone, 25 C",1.5 log10 K
same,"log K of transfer, water to solvent","[2]; Butan-1-ol, 25 C",1.28 log10 K
same,"log K of transfer, water to solvent","[2]; Butan-2-ol, 25 C",1.26 log10 K
same,"log K of transfer, water to solvent","[2]; CCl4, 25 C",1.51 log10 K
same,"log K of transfer, water to solvent","[2]; Chlorobenzene, 25 C",1.39 log10 K
same,"log K of transfer, water to solvent","[2]; Cyclohexanone, 25 C",1.34 log10 K
same,"log K of transfer, water to solvent","[2]; Ethanol, 25 C",1.35 log10 K
same,"log K of transfer, water to solvent","[2]; Heptan-1-ol, 25 C",1.25 log10 K
same,"log K of transfer, water to solvent","[2]; Hexadecane, 25 C",1.23 log10 K
same,"log K of transfer, water to solvent","[2]; Hexan-1-ol, 25 C",1.26 log10 K
same,"log K of transfer, water to solvent","[2]; Hexane, 25 C",1.41 log10 K
same,"log K of transfer, water to solvent","[2]; Methanol, 25 C",1.35 log10 K
same,"log K of transfer, water to solvent","[2]; Octan-1-ol(dry), 25 C",1.22 log10 K
same,"log K of transfer, water to solvent","[2]; Pentan-1-ol, 25 C",1.29 log10 K
same,"log K of transfer, water to solvent","[2]; Propan-1-ol, 25 C",1.32 log10 K
same,"log K of transfer, water to solvent","[2]; Propan-2-ol, 25 C",1.27 log10 K
same,"log K of transfer, water to solvent","[2]; Tetrahydrofuran, 25 C",1.54 log10 K
same,"log K of transfer, water to solvent",[3],1.13 log10 K
Cc1ccc(O)cc1,"log K of transfer, gas to solvent","[1]; 1,2-Dichloroethane, 25 C",5.68 log10 K
same,"log K of transfer, gas to solvent","[1]; Benzene, 25 C",5.39 log10 K
same,"log K of transfer, gas to solvent","[1]; CCl4, 25 C",4.72 log10 K
same,"log K of transfer, gas to solvent","[1]; Chlorobenzene, 25 C",5.3 log10 K
same,"log K of transfer, gas to solvent","[1]; Chloroform, 25 C",5.56 log10 K
same,"log K of transfer, gas to solvent","[1]; Cyclohexane, 25 C",4.36 log10 K
same,"log K of transfer, gas to solvent","[1]; Dichloromethane, 25 C",5.65 log10 K
same,"log K of transfer, gas to solvent","[1]; Hexadecane, 25 C",4.31 log10 K
same,"log K of transfer, gas to solvent","[1]; Hexane, 25 C",4.16 log10 K
same,"log K of transfer, gas to solvent","[1]; Perfluoroalkane, 25 C",2.67 log10 K
same,"log K of transfer, gas to solvent","[1]; Water, 25 C",4.5 log10 K
same,"log K of transfer, water to solvent","[2]; 1,2-Dichloroethane, 25 C",1.18 log10 K
same,"log K of transfer, water to solvent","[2]; Benzene, 25 C",0.89 log10 K
same,"log K of transfer, water to solvent","[2]; CCl4, 25 C",0.22 log10 K
same,"log K of transfer, water to solvent","[2]; Chlorobenzene, 25 C",0.8 log10 K
same,"log K of transfer, water to solvent","[2]; Chloroform, 25 C",1.06 log10 K
same,"log K of transfer, water to solvent","[2]; Cyclohexane, 25 C",-0.14 log10 K
same,"log K of transfer, water to solvent","[2]; Dichloromethane, 25 C",1.15 log10 K
same,"log K of transfer, water to solvent","[2]; Hexadecane, 25 C",-0.188 log10 K
same,"log K of transfer, water to solvent","[2]; Hexane, 25 C",-0.34 log10 K
same,"log K of transfer, water to solvent","[2]; Perfluoroalkane, 25 C",-1.83 log10 K
same,"log K of transfer, water to solvent",[3],1.97 log10 K
COC,"log K of transfer, gas to solvent","[1]; 2-Methylpropan-1-ol, 25 C",1.54 log10 K
same,"log K of transfer, gas to solvent","[1]; 2-Methylpropan-2-ol, 25 C",1.65 log10 K
same,"log K of transfer, gas to solvent","[1]; 3-Methylbutan-1-ol, 25 C",1.46 log10 K
same,"log K of transfer, gas to solvent","[1]; Butan-1-ol, 25 C",1.5 log10 K
same,"log K of transfer, gas to solvent","[1]; Butan-2-ol, 25 C",1.54 log10 K
same,"log K of transfer, gas to solvent","[1]; Chlorobenzene, 25 C",1.6 log10 K
same,"log K of transfer, gas to solvent","[1]; Hexadecane, 25 C",1.28 log10 K
same,"log K of transfer, gas to solvent","[1]; Hexane, 25 C",1.31 log10 K
same,"log K of transfer, gas to solvent","[1]; Methanol, 25 C",1.69 log10 K
same,"log K of transfer, gas to solvent","[1]; Octan-1-ol, 25 C",1.37 log10 K
same,"log K of transfer, gas to solvent","[1]; Pentan-1-ol, 25 C",1.45 log10 K
same,"log K of transfer, gas to solvent","[1]; Propan-2-ol, 25 C",1.56 log10 K
same,"log K of transfer, gas to solvent","[1]; Water, 25 C",1.4 log10 K
same,"log K of transfer, water to solvent","[2]; 2-Methylpropan-1-ol, 25 C",0.14 log10 K
same,"log K of transfer, water to solvent","[2]; 2-Methylpropan-2-ol, 25 C",0.25 log10 K
same,"log K of transfer, water to solvent","[2]; 3-Methylbutan-1-ol, 25 C",0.057 log10 K
same,"log K of transfer, water to solvent","[2]; Butan-1-ol, 25 C",0.0999 log10 K
same,"log K of transfer, water to solvent","[2]; Butan-2-ol, 25 C",0.14 log10 K
same,"log K of transfer, water to solvent","[2]; Chlorobenzene, 25 C",0.2 log10 K
same,"log K of transfer, water to solvent","[2]; Hexadecane, 25 C",-0.115 log10 K
same,"log K of transfer, water to solvent","[2]; Hexane, 25 C",-0.087 log10 K
same,"log K of transfer, water to solvent","[2]; Methanol, 25 C",0.29 log10 K
same,"log K of transfer, water to solvent","[2]; Octan-1-ol(dry), 25 C",-0.03 log10 K
same,"log K of transfer, water to solvent","[2]; Pentan-1-ol, 25 C",0.05 log10 K
same,"log K of transfer, water to solvent","[2]; Propan-2-ol, 25 C",0.16 log10 K
same,"log K of transfer, water to solvent",[3],0.0999 log10 K
Clc1cccc(Cl)c1,"log K of transfer, gas to solvent","[1]; CCl4, 25 C",4.55 log10 K
same,"log K of transfer, gas to solvent","[1]; Chloroform, 25 C",4.59 log10 K
same,"log K of transfer, gas to solvent","[1]; Hexadecane, 25 C",4.41 log10 K
same,"log K of transfer, gas to solvent","[1]; Hexane, 25 C",4.53 log10 K
same,"log K of transfer, gas to solvent","[1]; Octan-1-ol, 25 C",4.13 log10 K
same,"log K of transfer, gas to solvent","[1]; Water, 25 C",0.72 log10 K
same,"log K of transfer, water to solvent","[2]; CCl4, 25 C",3.83 log10 K
same,"log K of transfer, water to solvent","[2]; Chloroform, 25 C",3.87 log10 K
same,"log K of transfer, water to solvent","[2]; Hexadecane, 25 C",3.69 log10 K
same,"log K of transfer, water to solvent","[2]; Hexane, 25 C",3.81 log10 K
same,"log K of transfer, water to solvent","[2]; Octan-1-ol(dry), 25 C",3.41 log10 K
same,"log K of transfer, water to solvent",[3],3.6 log10 K
